These results are taken from ChEMBL document CHEMBL1128931, “Synthesis and biological evaluation of pyrido[2,3-b]pyrazine and pyrido[2,3-b]pyrazine-n-oxide as selective glycine antagonists” (Bioorg Med Chem Lett, 1996).

pKi: −log10 of the molar value.

Assay [1] concerns the target Glutamate receptor ionotropic, NMDA 1 (Rattus norvegicus, UniProt P35439). The experiment in a line: In vitro binding affinity for glycine site on the NMDA receptor.
The subject of assay [2] is Rattus norvegicus. The experiment in a line: Compound was evaluated in vivo for antagonistic activity against glycine site in NMDA induced convulsion model in rats after iv administration. Format: functional.
The test system of assay [3] is Rattus norvegicus. The experiment in a line: Compound was evaluated in vivo for antagonistic activity against glycine site in NMDA induced convulsion model in rats after ip administration. Format: functional.

Usually pKi stands for the Ki on a negative log10 scale, so that one unit is a factor of ten. Low readings indicate a high Ki, high ones a low Ki. The compound `Oc1nc2ccc(Cl)nc2nc1O` showed a negative logarithm of the Ki (pKi) in assay [1] of 5.21. Turning to `Oc1nc2nc(Cl)c(Cl)c(Cl)c2nc1O`, the pKi in assay [1] was 6.96. As a reminder, the ED50 is the dose that gives a 50% effect, or the effect in half of the subjects. With `Oc1nc2cc(C(F)(F)F)c(Cl)nc2nc1O`, the negative-log Ki (pKi) in assay [1] is 6.37. The compound further displayed an ED50 with Rattus norvegicus [2] of 15 mg/kg. Take `[O-][n+]1c(Cl)c(Cl)cc2nc(O)c(O)nc21`: the pKi in assay [1] is 6.95. Also, the median effective dose (ED50) is 14 mg/kg in the assay with Rattus norvegicus [2] and 24 mg/kg in the assay on Rattus norvegicus [3]. With `Cc1c(Br)c(Cl)[n+]([O-])c2nc(O)c(O)nc12`, the negative logarithm of the Ki (pKi) in assay [1] is 5.52. For the compound `Cc1c(Cl)c(Cl)[n+]([O-])c2nc(O)c(O)nc12`, in assay [1], the pKi is 5.50. The same compound returned a median effective dose (ED50) with Rattus norvegicus [3] of 30 mg/kg. Regarding `[O-][n+]1c(Cl)c(Br)cc2nc(O)c(O)nc21`, in assay [1], the pKi is 6.95. Also, the ED50 in the assay with Rattus norvegicus [2] came out at 18 mg/kg; with Rattus norvegicus [3] it was 45 mg/kg. Consider `Cc1c(Br)c(Cl)nc2nc(O)c(O)nc12`, for which the pKi in assay [1] was 6.55. This compound also had a median effective dose (ED50) in the assay on Rattus norvegicus [2] of 10 mg/kg.

For `Cc1c(Br)cnc2nc(O)c(O)nc12`, the pKi in assay [1] is 5.80. In the case of `Cc1c(Cl)c[n+]([O-])c2nc(O)c(O)nc12`, the pKi in assay [1] was 6.43. The ED50 amounted to 3 mg/kg in the assay with Rattus norvegicus [2] and 7 mg/kg in the assay on Rattus norvegicus [3].

Turning to `CCCc1nc2nc(O)c(O)nc2c(C)c1Cl`, the pKi in assay [1] is 5.56. As for `[O-][n+]1cc(I)cc2nc(O)c(O)nc21`, in assay [1], the pKi is 6.13. In addition, the ED50 in the assay on Rattus norvegicus [3] stood at 21 mg/kg. On to `Oc1nc2cc(I)c(Cl)nc2nc1O`, for which, in assay [1], the pKi is 6.69.

With `Cc1c(I)cc2nc(O)c(O)nc2[n+]1[O-]`, the negative logarithm of the Ki (pKi) in assay [1] is 6.65.

In assay [1], `[O-][n+]1cc(C(F)(F)F)cc2nc(O)c(O)nc21` showed a negative logarithm of the Ki (pKi) of 6.37. Further, the ED50 in the assay with Rattus norvegicus [2] amounted to 15 mg/kg. `Cc1c(I)cnc2nc(O)c(O)nc12` gave a pKi in assay [1] of 5.75. Consider `Cc1c(Cl)cnc2nc(O)c(O)nc12`, for which, in assay [1], the pKi was 5.54. This compound also showed an ED50 in the assay with Rattus norvegicus [3] of 20 mg/kg.

In turn, `Cc1c(I)c[n+]([O-])c2nc(O)c(O)nc12` showed a pKi in assay [1] of 6.04. The compound also had an ED50 in the assay with Rattus norvegicus [3] of 30 mg/kg. In assay [1], `[O-][n+]1cc(C(F)(F)F)c(Cl)c2nc(O)c(O)nc21` gave a pKi of 5.43. In the assay on Rattus norvegicus [3], this compound yielded an ED50 of 50 mg/kg. `Cc1c(Br)c[n+]([O-])c2nc(O)c(O)nc12` gave a pKi in assay [1] of 6.27. The results for the ED50 in the assay with Rattus norvegicus [2] and in the assay with Rattus norvegicus [3] were 5 mg/kg and 9 mg/kg, respectively. Consider `[O-][n+]1cc(Cl)cc2nc(O)c(O)nc21`, for which, in assay [1], the pKi was 6.29.

In assay [1], `[O-][n+]1c(Cl)ccc2nc(O)c(O)nc21` had a pKi of 5.33. Regarding `Oc1nc2ncc(C(F)(F)F)c(Cl)c2nc1O`, in assay [1], the pKi was 5.80. As for `Cc1nc2nc(O)c(O)nc2cc1I`, the pKi in assay [1] is 6.33. The compound `Cc1nc2nc(O)c(O)nc2c(C)c1Cl` showed a pKi in assay [1] of 6.09. Turning to `Oc1nc2cc(Cl)c(Cl)nc2nc1O`, the pKi in assay [1] is 6.73. In addition, the ED50 with Rattus norvegicus [2] was determined as 0.7 mg/kg; in the assay with Rattus norvegicus [3], 41 mg/kg. Take `Cc1c(Cl)c(Cl)nc2nc(O)c(O)nc12`: in assay [1], the pKi is 6.72. `Oc1nc2cc(Br)c(Cl)nc2nc1O`: the figures for the 50% effective dose (ED50) in the assay with Rattus norvegicus [2] and with Rattus norvegicus [3] were 20 mg/kg and 100 mg/kg, respectively. In turn, `Oc1nc2cc(C(F)(F)F)cnc2nc1O` had a pKi in assay [1] of 6.30. Moreover, the ED50 with Rattus norvegicus [2] is 13 mg/kg; in the assay with Rattus norvegicus [3], 27 mg/kg.

The compound `[O-][n+]1c(Cl)c(I)cc2nc(O)c(O)nc21` gave a pKi in assay [1] of 6.68. In turn, `CCCc1c(Cl)cc2nc(O)c(O)nc2[n+]1[O-]` gave a negative logarithm of the Ki (pKi) in assay [1] of 6.34.

In the case of `[O-][n+]1c(Cl)c(C(F)(F)F)cc2nc(O)c(O)nc21`, the pKi in assay [1] is 6.29. In addition, the ED50 with Rattus norvegicus [2] stood at 30 mg/kg; in the assay on Rattus norvegicus [3] it was 60 mg/kg.

Compound `CCCc1nc2nc(O)c(O)nc2cc1Cl` showed a negative-log Ki (pKi) in assay [1] of 5.82.
